Experimental data: paper PMC5095062, “The novel choline kinase inhibitor ICL-CCIC-0019 reprograms cellular metabolism and inhibits cancer cell growth” (Oncotarget, 2016)

How the values were obtained:
Experiment in all cases: Kinase selectivity screen
Format in all cases: biochemical
[1] = molecular target: NEK2a (Homo sapiens, UniProt P51955)
Description: (§1) The substantially less demanding synthesis of ICL-CCIC-0019 compared with MN58B bears additional advantages. […] This consequently diminished intracellular PCho concentration, and importantly, the incorporation of [^3H]-choline into lipids (Figure 1D). […] To assess kinase specificity, ICL-CCIC-0019 was tested against a panel of 131 human kinases (Figure 1E and Supplementary Table S1). […] Inhibition greater than 20% was attained for insulin-like growth factor 1 (IGF-1R, 35 ± 7% inhibition), mitogen-activated protein kinase-activated protein kinase 3 (MAPKAP-K3, 33 ± 6%), extracellular signal regulated kinase 8 (ERK8, 31 ± 4%), ribosomal S6 kinase 1 (RSK1, 22 ± 6%), and v-erb-a erythroblastic leukemia viral oncogene homolog 4 (HER4, 21 ± 7%).

[2] = molecular target: PRAK (Homo sapiens, UniProt Q8IW41)
Description: as §1

[3] = molecular target: EPH-B3 (Homo sapiens, UniProt P54753); conditions: EPH-B3, 10 μM
Description: as §1

[4] = molecular target: TSSK1 (Homo sapiens, UniProt Q9BXA7); conditions: TSSK1, 10 μM
Description: as §1

[5] = molecular target: RSK1 (Homo sapiens, UniProt Q15418); conditions: RSK1, 10 μM
Description: as §1

[6] = molecular target: NEK6 (Homo sapiens, UniProt Q9HC98); conditions: NEK6, 10 μM
Description: as §1

[7] = molecular target: IKKe (Homo sapiens, UniProt Q14164)
Description: as §1

[8] = molecular target: DAPK1 (Homo sapiens, UniProt P53355); conditions: DAPK1, 10 μM
Description: as §1

[9] = molecular target: PIM2 (Homo sapiens, UniProt Q9P1W9); conditions: PIM2, 10 μM
Description: as §1

[10] = molecular target: PIM1 (Homo sapiens, UniProt P11309); conditions: PIM1, 10 μM
Description: as §1

[11] = molecular target: MPSK1 (Homo sapiens, UniProt O75716); conditions: MPSK1, 10 μM
Description: as §1

[12] = molecular target: MEKK1 (Homo sapiens, UniProt Q13233); conditions: MEKK1, 10 μM
Description: as §1

[13] = molecular target: MAPKAP-K2 (Homo sapiens, UniProt P49137); conditions: MAPKAP-K2, 10 μM
Description: as §1

[14] = molecular target: STK33 (Homo sapiens, UniProt Q9BYT3); conditions: STK33, 10 μM
Description: as §1

[15] = molecular target: MARK2 (Homo sapiens, UniProt Q7KZI7); conditions: MARK2, 10 μM
Description: as §1

[16] = molecular target: IKKb (Homo sapiens, UniProt O14920)
Description: as §1

[17] = molecular target: Aurora A (Homo sapiens, UniProt O14965)
Description: as §1

[18] = molecular target: EPH-A4 (Homo sapiens, UniProt P54764); conditions: EPH-A4, 10 μM
Description: as §1

[19] = molecular target: PKCa (Homo sapiens, UniProt P17252)
Description: as §1

[20] = molecular target: MKK6 (Homo sapiens, UniProt P52564); conditions: MKK6, 10 μM
Description: as §1

[21] = molecular target: ZAP70 (Homo sapiens, UniProt P43403); conditions: ZAP70, 10 μM
Description: as §1

[22] = molecular target: PAK5 (Homo sapiens, UniProt Q9P286); conditions: PAK5, 10 μM
Description: as §1

[23] = molecular target: PAK6 (Homo sapiens, UniProt Q9NQU5); conditions: PAK6, 10 μM
Description: as §1

[24] = molecular target: TESK1 (Homo sapiens, UniProt Q15569); conditions: TESK1, 10 μM
Description: as §1

[25] = molecular target: p38a MAPK (Homo sapiens, UniProt Q16539)
Description: as §1

[26] = molecular target: TrkA (Homo sapiens, UniProt P04629)
Description: as §1

[27] = molecular target: PKA (Homo sapiens, UniProt P17612)
Description: as §1

[28] = molecular target: ERK2 (Homo sapiens, UniProt P28482); conditions: ERK2, 10 μM
Description: as §1

[29] = molecular target: JNK1 (Homo sapiens, UniProt P45983); conditions: JNK1, 10 μM
Description: as §1

[30] = molecular target: DYRK3 (Homo sapiens, UniProt O43781); conditions: DYRK3, 10 μM
Description: as §1

[31] = molecular target: IR (Homo sapiens, UniProt P06213)
Description: as §1

[32] = molecular target: LKB1 (Homo sapiens, UniProt Q15831); conditions: LKB1, 10 μM
Description: as §1

[33] = molecular target: SGK1 (Homo sapiens, UniProt O00141); conditions: SGK1, 10 μM
Description: as §1

[34] = molecular target: WNK1 (Homo sapiens, UniProt Q9H4A3); conditions: WNK1, 10 μM
Description: as §1

[35] = molecular target: p38d MAPK (Homo sapiens, UniProt O15264)
Description: as §1

[36] = molecular target: SRPK1 (Homo sapiens, UniProt Q96SB4); conditions: SRPK1, 10 μM
Description: as §1

RSK1, sequence (Q15418 whole entry): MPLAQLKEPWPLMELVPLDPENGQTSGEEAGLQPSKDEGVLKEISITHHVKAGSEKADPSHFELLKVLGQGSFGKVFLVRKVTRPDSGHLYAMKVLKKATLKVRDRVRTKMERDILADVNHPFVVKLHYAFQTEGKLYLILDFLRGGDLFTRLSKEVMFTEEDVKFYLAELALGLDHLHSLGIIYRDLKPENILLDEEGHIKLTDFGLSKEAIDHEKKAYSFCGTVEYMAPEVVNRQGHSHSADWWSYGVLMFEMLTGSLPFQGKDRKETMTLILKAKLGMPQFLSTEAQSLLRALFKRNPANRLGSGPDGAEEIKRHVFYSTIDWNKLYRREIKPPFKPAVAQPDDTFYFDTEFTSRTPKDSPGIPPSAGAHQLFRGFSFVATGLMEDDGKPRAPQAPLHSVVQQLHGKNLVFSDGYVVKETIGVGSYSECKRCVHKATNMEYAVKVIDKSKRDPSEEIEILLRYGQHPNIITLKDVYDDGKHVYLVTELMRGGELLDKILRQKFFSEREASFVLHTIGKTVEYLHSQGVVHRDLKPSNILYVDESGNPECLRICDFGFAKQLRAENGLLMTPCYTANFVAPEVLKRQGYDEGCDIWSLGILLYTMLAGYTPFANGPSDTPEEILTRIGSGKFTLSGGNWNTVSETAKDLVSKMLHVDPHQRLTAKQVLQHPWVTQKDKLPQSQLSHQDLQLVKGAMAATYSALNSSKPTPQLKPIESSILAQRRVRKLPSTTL
p38d MAPK, sequence (O15264 whole entry): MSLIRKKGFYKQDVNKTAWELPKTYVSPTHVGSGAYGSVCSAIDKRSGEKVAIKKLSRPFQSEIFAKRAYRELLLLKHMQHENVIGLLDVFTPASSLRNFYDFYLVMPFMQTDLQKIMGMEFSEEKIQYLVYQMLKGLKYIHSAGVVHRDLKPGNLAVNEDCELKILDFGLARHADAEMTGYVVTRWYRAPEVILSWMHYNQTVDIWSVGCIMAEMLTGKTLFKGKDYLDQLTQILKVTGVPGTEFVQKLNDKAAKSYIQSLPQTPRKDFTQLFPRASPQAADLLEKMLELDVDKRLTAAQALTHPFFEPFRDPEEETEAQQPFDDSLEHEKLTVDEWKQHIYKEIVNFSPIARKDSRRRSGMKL
MEKK1, sequence (Q13233 whole entry): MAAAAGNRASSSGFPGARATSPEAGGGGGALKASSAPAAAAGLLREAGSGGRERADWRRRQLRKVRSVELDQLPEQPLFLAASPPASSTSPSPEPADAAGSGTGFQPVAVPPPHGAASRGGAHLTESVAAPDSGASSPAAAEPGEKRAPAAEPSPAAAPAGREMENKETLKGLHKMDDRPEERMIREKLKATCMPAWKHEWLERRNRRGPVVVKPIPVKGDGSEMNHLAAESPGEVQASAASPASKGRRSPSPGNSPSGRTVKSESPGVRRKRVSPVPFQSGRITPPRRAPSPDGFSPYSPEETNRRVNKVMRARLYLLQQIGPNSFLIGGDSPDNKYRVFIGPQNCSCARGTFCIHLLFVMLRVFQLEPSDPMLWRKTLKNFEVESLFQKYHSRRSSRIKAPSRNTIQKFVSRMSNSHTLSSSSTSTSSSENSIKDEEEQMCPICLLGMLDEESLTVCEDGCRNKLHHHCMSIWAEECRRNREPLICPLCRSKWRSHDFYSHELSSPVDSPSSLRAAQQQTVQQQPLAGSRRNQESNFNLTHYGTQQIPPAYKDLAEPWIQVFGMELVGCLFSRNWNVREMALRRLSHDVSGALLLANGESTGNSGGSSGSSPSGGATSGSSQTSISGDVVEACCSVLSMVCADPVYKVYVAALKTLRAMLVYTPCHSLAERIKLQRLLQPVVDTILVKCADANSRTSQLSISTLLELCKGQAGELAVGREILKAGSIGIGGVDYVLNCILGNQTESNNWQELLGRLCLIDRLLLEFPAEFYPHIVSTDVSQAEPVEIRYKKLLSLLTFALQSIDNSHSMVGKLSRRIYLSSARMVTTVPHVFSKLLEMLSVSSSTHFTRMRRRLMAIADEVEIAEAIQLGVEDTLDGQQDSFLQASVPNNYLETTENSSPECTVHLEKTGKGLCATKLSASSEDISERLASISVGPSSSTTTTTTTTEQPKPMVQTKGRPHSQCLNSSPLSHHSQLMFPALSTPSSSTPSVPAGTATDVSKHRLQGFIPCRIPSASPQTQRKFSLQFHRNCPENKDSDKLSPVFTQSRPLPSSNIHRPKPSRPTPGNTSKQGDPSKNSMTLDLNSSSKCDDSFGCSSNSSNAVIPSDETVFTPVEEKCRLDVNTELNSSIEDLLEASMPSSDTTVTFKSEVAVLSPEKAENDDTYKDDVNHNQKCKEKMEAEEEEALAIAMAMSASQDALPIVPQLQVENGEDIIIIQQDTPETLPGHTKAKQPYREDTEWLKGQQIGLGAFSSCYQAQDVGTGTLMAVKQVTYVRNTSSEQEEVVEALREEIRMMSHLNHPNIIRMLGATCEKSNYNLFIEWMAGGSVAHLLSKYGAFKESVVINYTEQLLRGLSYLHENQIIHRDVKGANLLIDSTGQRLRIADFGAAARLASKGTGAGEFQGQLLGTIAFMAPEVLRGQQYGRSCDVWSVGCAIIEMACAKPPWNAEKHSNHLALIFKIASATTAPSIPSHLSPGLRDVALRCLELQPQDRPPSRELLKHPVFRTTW
IKKb, sequence (O14920 whole entry): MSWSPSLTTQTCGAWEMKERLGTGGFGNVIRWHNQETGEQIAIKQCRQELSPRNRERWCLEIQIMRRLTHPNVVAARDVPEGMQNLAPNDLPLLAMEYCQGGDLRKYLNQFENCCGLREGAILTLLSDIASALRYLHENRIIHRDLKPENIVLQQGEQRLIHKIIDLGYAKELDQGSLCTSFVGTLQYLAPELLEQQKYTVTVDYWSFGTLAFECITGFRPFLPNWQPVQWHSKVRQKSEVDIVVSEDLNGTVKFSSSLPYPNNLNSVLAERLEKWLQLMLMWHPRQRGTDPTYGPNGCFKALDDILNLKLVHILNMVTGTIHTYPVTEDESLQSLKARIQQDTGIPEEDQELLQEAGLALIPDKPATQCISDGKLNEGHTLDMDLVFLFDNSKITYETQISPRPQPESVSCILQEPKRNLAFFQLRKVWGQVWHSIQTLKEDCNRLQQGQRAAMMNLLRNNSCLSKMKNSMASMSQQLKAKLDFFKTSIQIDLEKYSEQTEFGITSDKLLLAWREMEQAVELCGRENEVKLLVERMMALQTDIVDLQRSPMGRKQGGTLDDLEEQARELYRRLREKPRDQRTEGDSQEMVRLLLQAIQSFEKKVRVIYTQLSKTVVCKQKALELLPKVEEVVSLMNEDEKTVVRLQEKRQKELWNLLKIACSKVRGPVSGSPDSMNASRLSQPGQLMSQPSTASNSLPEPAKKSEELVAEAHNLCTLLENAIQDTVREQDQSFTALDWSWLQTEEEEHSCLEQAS
PIM2, sequence (Q9P1W9 whole entry): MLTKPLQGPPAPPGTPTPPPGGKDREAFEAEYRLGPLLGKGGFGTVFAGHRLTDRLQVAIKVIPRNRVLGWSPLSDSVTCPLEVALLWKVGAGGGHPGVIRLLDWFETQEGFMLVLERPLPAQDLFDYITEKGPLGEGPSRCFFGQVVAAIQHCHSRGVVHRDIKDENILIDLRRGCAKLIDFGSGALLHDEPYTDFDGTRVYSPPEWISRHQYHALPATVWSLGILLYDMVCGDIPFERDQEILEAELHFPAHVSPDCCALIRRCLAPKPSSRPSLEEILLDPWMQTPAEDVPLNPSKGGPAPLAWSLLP
TESK1, sequence (Q15569 whole entry): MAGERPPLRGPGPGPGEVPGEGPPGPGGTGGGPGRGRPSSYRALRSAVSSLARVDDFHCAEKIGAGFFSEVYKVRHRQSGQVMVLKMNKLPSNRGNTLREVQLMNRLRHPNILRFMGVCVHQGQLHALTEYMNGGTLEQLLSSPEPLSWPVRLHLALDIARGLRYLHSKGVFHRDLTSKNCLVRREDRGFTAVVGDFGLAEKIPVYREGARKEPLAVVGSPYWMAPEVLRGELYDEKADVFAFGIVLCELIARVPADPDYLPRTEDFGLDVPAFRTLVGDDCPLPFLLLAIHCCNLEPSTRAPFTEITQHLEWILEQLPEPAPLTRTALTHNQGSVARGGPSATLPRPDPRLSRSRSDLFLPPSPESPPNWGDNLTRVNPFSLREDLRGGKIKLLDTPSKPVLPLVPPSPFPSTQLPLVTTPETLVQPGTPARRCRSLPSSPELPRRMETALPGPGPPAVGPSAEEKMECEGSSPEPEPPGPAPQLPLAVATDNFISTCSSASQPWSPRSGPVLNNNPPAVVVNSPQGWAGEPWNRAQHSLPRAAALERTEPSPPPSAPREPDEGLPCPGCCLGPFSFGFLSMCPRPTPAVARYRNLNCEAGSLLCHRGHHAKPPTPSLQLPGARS
MKK6, sequence (P52564 whole entry): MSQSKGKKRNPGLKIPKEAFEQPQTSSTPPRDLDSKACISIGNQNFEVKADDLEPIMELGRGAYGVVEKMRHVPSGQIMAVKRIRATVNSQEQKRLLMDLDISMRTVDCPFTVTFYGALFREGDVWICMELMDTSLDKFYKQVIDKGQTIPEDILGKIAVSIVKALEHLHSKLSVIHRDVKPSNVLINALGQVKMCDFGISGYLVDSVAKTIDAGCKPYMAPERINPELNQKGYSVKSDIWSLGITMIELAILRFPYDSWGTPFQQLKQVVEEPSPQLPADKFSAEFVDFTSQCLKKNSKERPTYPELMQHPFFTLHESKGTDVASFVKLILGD
Aurora A, sequence (O14965 whole entry): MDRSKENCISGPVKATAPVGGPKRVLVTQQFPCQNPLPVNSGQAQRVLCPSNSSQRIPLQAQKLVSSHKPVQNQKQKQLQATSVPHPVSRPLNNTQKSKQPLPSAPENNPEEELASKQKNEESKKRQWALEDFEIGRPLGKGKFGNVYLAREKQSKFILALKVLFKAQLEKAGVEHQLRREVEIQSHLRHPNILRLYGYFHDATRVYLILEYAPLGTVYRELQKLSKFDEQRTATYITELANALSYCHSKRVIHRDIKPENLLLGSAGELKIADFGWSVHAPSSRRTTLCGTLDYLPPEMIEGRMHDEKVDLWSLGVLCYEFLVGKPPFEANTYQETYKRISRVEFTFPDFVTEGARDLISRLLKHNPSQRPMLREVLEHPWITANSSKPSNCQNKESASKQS

SMILES: CN(C)c1cc[n+](CCCCCCCCCCCC[n+]2ccc(N(C)C)cc2)cc1 [ICL-CCIC-0019]
- remaining activity at 10 µM [1]: 101%
- remaining activity at 10 µM [2]: 101%
- remaining activity at 10 µM [3]: 107%
- remaining activity at 10 µM [4]: 107%
- inhibition at 10 µM [5]: 22 ± 6%
- remaining activity at 10 µM [5]: 78%
- remaining activity at 10 µM [6]: 86%
- remaining activity at 10 µM [7]: 123%
- remaining activity at 10 µM [8]: 96%
- remaining activity at 10 µM [9]: 103%
- remaining activity at 10 µM [10]: 102%
- remaining activity at 10 µM [11]: 105%
- remaining activity at 10 µM [12]: 92%
- remaining activity at 10 µM [13]: 89%
- remaining activity at 10 µM [14]: 99%
- remaining activity at 10 µM [15]: 86%
- remaining activity at 10 µM [16]: 101%
- remaining activity at 10 µM [17]: 98%
- remaining activity at 10 µM [18]: 124%
- remaining activity at 10 µM [19]: 98%
- remaining activity at 10 µM [20]: 102%
- remaining activity at 10 µM [21]: 102%
- remaining activity at 10 µM [22]: 90%
- remaining activity at 10 µM [23]: 107%
- remaining activity at 10 µM [24]: 101%
- remaining activity at 10 µM [25]: 108%
- remaining activity at 10 µM [26]: 84%
- remaining activity at 10 µM [27]: 106%
- remaining activity at 10 µM [28]: 103%
- remaining activity at 10 µM [29]: 98%
- remaining activity at 10 µM [30]: 106%
- remaining activity at 10 µM [31]: 103%
- remaining activity at 10 µM [32]: 100%
- remaining activity at 10 µM [33]: 94%
- remaining activity at 10 µM [34]: 102%
- remaining activity at 10 µM [35]: 100%
- remaining activity at 10 µM [36]: 106%
